The experiment concerns −2 DAA WT ovaries. Nature of the experiment: RNA-seq of −2 DAA WT ovaries treated with 2,4-D vs mock. The class given is in vivo, Tomato (Solanum lycopersicum). The settings on record: 100 μM 2,4-D, fold change >1.5, p<0.05. The protocol: Tomato plants were grown in greenhouse with 16 h day/8 h night light cycle as described previously (Hu et al.). Parthenocarpy test was done as described previously in Hu et al., with some modifications: −2 DAA flowers on mature tomato plants (2-6 weeks after first flowering) were emasculated and recorded fruit growth 5 weeks later; fruit diameter of at least 1 cm was considered as parthenocarpy. For fruit yield analysis, the number of flowers were counted for each young flower cluster of ˜two-month-old plants, and fruits developed on these clusters were harvested individually and weighed when they were at the red ripe stage. Whole plant phenotypes including plant height, internode numbers and length, and leaf morphology were recorded 5 weeks after sowing. For 2,4-D treatment, 10 μl of 100 μM 2,4-D, or mock solvent (5% MeOH, 0.1% Tween-20) was applied to −2 DAA ovaries of emasculated flowers. All statistical analyses were performed using Student's t-test.
Total RNAs were purified from −2 DAA ovaries of WT and 8a-1 8b-1, as well as −2 DAA WT ovaries treated with 100 μM 2,4-D for 2/6/24 h or mock treated (5% methanol, 0.1% Tween 20). RNA-Seq cDNA libraries (three biological repeats) were prepared with the QuantSeq 3′mRNA-Seq library prep kit FWD for Illumina (Lexogen). DNA sequencing was performed with Illumina Next-Seq500 High-Output 75 bp SR. Sequence alignment and DE (differential expression) analysis were done online at lexogen.bluebee.com. Heatmap was created in RStudio with plotly package. Co-regulated genes among 8a 8b and +2,4-D 2/6/24 h gene lists were then identified (fold change >1.5; p<0.1 for 8a 8b vs. WT; p<0.05 for +2,4-D vs. mock). Venn Diagrams were made using online tool at InteractiVenn.net^53. GO analysis was performed using agriGO v2 toolkit (Tian et al. agriGO v2.0: a GO analysis toolkit for the agricultural community, 2017 update. Nucleic Acids Res 45, W122-W129, (2017)). Heatmap analysis was made in R language with the plotly package. […]

The values below come from US20240417745A1, “SYSTEMS AND METHODS FOR SEEDLESS FRUIT TRAIT” (Duke University, priority 2023, published 2024).

For `O=C(O)COc1ccc(Cl)cc1Cl` [2,4-D], the “number of auxin-responsive differentially expressed genes (DEG)” value is, setting by setting: (2 h treatment vs mock) 1731; (6 h treatment vs mock) 3262; (24 h treatment vs mock) 3212.
